According to the supplement of paper PMC10307832:

Experiments:
Assay in all cases: relative viability (nuclei count vs DMSO), 5 days (fraction); higher = more cells survive
Bemcentinib + Luminespib = compound: Nc1nc(Nc2ccc3c(c2)CC[C@@H](N2CCCC2)CC3)nn1-c1cc2c(nn1)-c1ccccc1CCC2 [Bemcentinib] + CCNC(=O)c1noc(-c2cc(C(C)C)c(O)cc2O)c1-c1ccc(CN2CCOCC2)cc1 [Luminespib] (partner 0.01 µM)
Summary of the method: (§1)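 Relative viability equals treated-well nuclei counts divided by vehicle-well nuclei counts. Counts came from 4× images of lung cancer cell lines grown in 1536-well plates for 5 days after pin-tool dosing on the day after seeding. Dosing used one drug alone or a fixed anchor-drug dose plus five library-drug doses (not always all listed) in √10 steps, and values are medians of duplicate plates.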

Axitinib + Foretinib = compound: CNC(=O)c1ccccc1Sc1ccc2c(/C=C/c3ccccn3)n[nH]c2c1 [Axitinib] + COc1cc2c(Oc3ccc(NC(=O)C4(C(=O)Nc5ccc(F)cc5)CC4)cc3F)ccnc2cc1OCCCN1CCOCC1 [Foretinib] (partner 0.25 µM)
Summary of the method: as §1

[1] = compound: CC1=CC=C(C=C1)C(=O)CN2C3=C(CCCC3)SC2=N [Pifithrin_alpha] + COc1cc2c(Oc3ccc(NC(=O)C4(C(=O)Nc5ccc(F)cc5)CC4)cc3F)ccnc2cc1OCCCN1CCOCC1 [Foretinib] (partner 0.25 µM)
Summary of the method: as §1

Bemcentinib + Bortezomib = compound: Nc1nc(Nc2ccc3c(c2)CC[C@@H](N2CCCC2)CC3)nn1-c1cc2c(nn1)-c1ccccc1CCC2 [Bemcentinib] + CC(C)C[C@H](NC(=O)[C@H](Cc1ccccc1)NC(=O)c1cnccn1)B(O)O [Bortezomib] (partner 0.002 µM)
Summary of the method: as §1

| Cell Line | relative viability (Bemcentinib + Luminespib; first compound 0.04 µM) | relative viability (Bemcentinib + Luminespib; first compound 0.1265 µM) | relative viability (Bemcentinib + Luminespib; first compound 0.4 µM) | relative viability (Bemcentinib + Luminespib; first compound 1.265 µM) | relative viability (Bemcentinib + Luminespib; first compound 4 µM) | relative viability (Axitinib + Foretinib; first compound 0.005 µM) | relative viability (Axitinib + Foretinib; first compound 0.01581 µM) | relative viability (Axitinib + Foretinib; first compound 0.05 µM) | relative viability (Axitinib + Foretinib; first compound 0.1581 µM) | relative viability (Axitinib + Foretinib; first compound 0.5 µM) | relative viability ([1]; first compound 1 µM) | relative viability ([1]; first compound 3.162 µM) | relative viability ([1]; first compound 10 µM) | relative viability ([1]; first compound 31.62 µM) | relative viability ([1]; first compound 100 µM) | relative viability (Bemcentinib + Bortezomib; first compound 0.04 µM) | relative viability (Bemcentinib + Bortezomib; first compound 0.1265 µM) | relative viability (Bemcentinib + Bortezomib; first compound 0.4 µM) | relative viability (Bemcentinib + Bortezomib; first compound 1.265 µM) | relative viability (Bemcentinib + Bortezomib; first compound 4 µM) |
| --- | --- | --- | --- | --- | --- | --- | --- | --- | --- | --- | --- | --- | --- | --- | --- | --- | --- | --- | --- | --- |
| NCI-H1563 | 0.507 | 0.538 | 0.475 | 0.55 | 0.535 | 0.934 | 0.918 | 0.884 | 0.847 | 0.938 | 0.879 | 0.912 | 0.875 | 0.881 | 0.81 | 0.811 | 0.86 | 0.859 | 0.992 | 0.863 |
| EMC-BAC-2 | 1.24 | 1.29 | 1.16 | 1.19 | 1.2 | 1.05 | 1.08 | 1.03 | 1.08 | 1.09 | 0.912 | 0.932 | 0.968 | – | 0.818 | 1.07 | 1.15 | 1.07 | 0.952 | 1.11 |
| NCI-H596 | 0.893 | 1.12 | 1.23 | 1.27 | 1.09 | 0.504 | 0.861 | 0.803 | 0.873 | 0.818 | 0.924 | 0.737 | 0.823 | 0.735 | 0.958 | 0.897 | 1.23 | 1.08 | 1.1 | 1.03 |
| NCI-H2009 | 1.07 | 1.04 | 1.13 | 0.997 | 1.03 | 1.21 | 1.23 | 1.23 | 1.27 | 1.08 | 1.19 | 1.26 | 1.18 | 0.829 | 1.05 | 0.986 | 1.05 | 1.09 | 1.09 | 1.19 |
| HOP-62 | 0.863 | 0.875 | 0.844 | 1.02 | 1 | 1.07 | 1.14 | 1.06 | 1.09 | 1.3 | 1.17 | 1.16 | 1.18 | 1.03 | 1.19 | 0.753 | 0.822 | – | 0.779 | 0.736 |
| NCI-H2126 | 0.893 | 0.973 | 0.81 | 0.975 | 0.939 | 1.27 | 0.967 | 1.09 | 1.21 | 1.26 | – | 0.988 | 0.946 | 0.96 | 1.1 | 1.11 | 1.07 | 1.18 | 1.16 | 1.13 |
| HCC-15 | 0.326 | 0.485 | 0.293 | 0.253 | 0.235 | 1.1 | 1.11 | 0.958 | 0.99 | 0.999 | 1.08 | 1.05 | 0.93 | 0.731 | 0.789 | 0.931 | 1.19 | 1.12 | 1 | 1.07 |
| NCI-H23 | 0.197 | 0.233 | 0.192 | 0.224 | 0.214 | 1.06 | 0.948 | 1.06 | 0.955 | 1.02 | 0.9 | 1.19 | 1.08 | – | 0.872 | 1.16 | 1.14 | 1.01 | 1.17 | 1.14 |
| LCLC-97TM1 | 0.684 | 0.793 | 0.726 | 0.866 | 0.986 | 0.847 | 0.977 | 0.926 | 0.896 | 0.918 | 0.954 | 1.08 | 0.934 | 0.496 | 0.909 | 0.571 | 0.794 | 0.703 | 0.602 | 0.473 |
| SW 1573 | 0.203 | 0.185 | 0.212 | 0.152 | 0.215 | 0.743 | 0.915 | 1.26 | 0.811 | 0.989 | 1.01 | 0.891 | 0.835 | 0.753 | 0.709 | 1.09 | 0.973 | 1.14 | 0.97 | 1.15 |
| EKVX | 0.825 | 0.878 | 0.923 | 0.838 | 0.863 | 0.861 | 0.786 | 0.349 | 0.778 | 0.824 | 0.744 | – | 0.736 | 0.731 | 0.636 | 1.02 | 1.36 | 1.03 | 0.996 | 0.995 |
| HCC-44 | 1.05 | 1.4 | 1.02 | 1.06 | 1.05 | – | – | – | – | – | – | – | – | – | – | 0.974 | 0.92 | 0.992 | 0.89 | 0.917 |
| NCI-H1651 | 0.967 | 0.757 | 1.05 | 0.79 | 0.977 | 0.879 | 0.896 | 0.876 | 0.878 | 0.859 | 0.933 | 0.775 | 0.787 | 0.583 | 0.7 | 0.955 | 1.05 | 1.03 | 0.745 | 0.878 |
| NCI-H1299 | – | – | – | – | – | 1.06 | 1.04 | 1.08 | 1.08 | 1.24 | 1.04 | 1.14 | 1.07 | 0.889 | 1.07 | 0.981 | 1.03 | 1.03 | 1.04 | 1.09 |
